One data set has as its system ERK1/2. Kind of data set: ERK1/2 inhibiting activity (FIG. 8B). It counts as biochemical. The note with it: in words. The source says: (§1) The activity of the respective payload is blocked until the linker moiety gets cleaved in the tumor and releases active unblocked payload. Through the HSP90 platform, toxicity is mitigated by masking the payload's active site until it can be delivered to the tumor.
(§2) FIG. 8A compares the activity of Conjugate 45 and its payload (talazoparib). FIG. 8B compares the activity of Conjugate 46 and its payload (ulixertinib). FIG. 8C compares the activity of Conjugate 47 and its payload TAK-733. The data further support that attaching a payload to a HSP90 binding ligand blocks the target activity of the payload. The HSP90 bindings of the HSP90 ligands are not affected.

The subject of another data set is MEK. Kind of data set: MEK activity (FIG. 8C). It counts as biochemical. The note with it: in words.
Text: as §1, §2

The next data set relates to human total EbB2/Her2. As to the kind of experiment: HER2 degradation assay (ELISA) in BT474 cells. It counts as cell-based. The note with it: BT-474, 16 hrs, read-out: Her2 Degradation IC50 Abs IC50. The procedure: BT474 (breast cancer) cells were plated at 12,000 cells per well and incubated for 20-24 hrs at 37° C. at 5% CO2. Post cell incubation, compounds were reconstituted in DMSO to a stock concentration of 5 mM. A compound plate was then prepared containing a 10 point dilution in DMSO. 2 uL of these dilutions were then added to the cells for a final working concentration of 5 uM to 0.0003 uM. Compounds and cells were incubated for 16 hrs. Media was then removed, cells washed, lysed, and analyzed for human total EbB2/Her2 levels by ELISA.
For orientation: ELISA stands for enzyme-linked immunosorbent assay.

Data set [1] deals with H460 lung cancer xenograft. Kind of data set: H460 lung cancer xenograft model. It counts as in vivo, mice. The note with it: FIG. 2, in words.
The nature of a further data set: H460 mouse tumor PK. It counts as in vivo, mice. The note with it: for concentration at 96 h / concentration at 144 h: mouse, in vivo, 25 mg/kg, 25 mg/kg IV, read-out: Conjugate 38 Conc. in H460 Mouse Tumor. The procedure:
Conjugate and unconjugated payload accumulation at 96 and 144 h in H460 tumor-bearing mice. Conjugate 38 was dosed at 25 mg/kg intravenously.

The nature of data set [2]: Glucose levels post dosing in mice. It counts as in vivo. The note with it: FIG. 7, in words. From the text: In an in vivo study in mice, glucose levels were monitored post PI3K inhibitor (Copanlisib) and Conjugate 38 dosing. […] Therefore, conjugating a PI3K enzyme inhibitor payload to a HSP90 targeting ligand reduced the normal tissue activity of glucose increase in mice.

For data set [3], the system named is H1975 cells (non-small cell lung cancer) xenograft. Kind of data set: H1975 xenograft study. The note with it: 12.5 mg/kg twice a week intravenously, Day 19, compared to vehicle control. It counts as in vivo, mice. The procedure: Female athymic nude mice were implanted with 5×10^6 H1975 cells (non-small cell lung cancer) per mouse in the right hind flank. Once tumors reached a volume of 50 mm^3 to 150 mm^3 they were randomized into two groups of ten to obtain a group average starting tumor volume of 114.4 mm^3. Mice were then treated with either a vehicle control or 12.5 mg/kg of Conjugate 38. All dosing was carried out twice a week intravenously for three weeks, with five total doses being administered. Tumor volumes of the mice were measured. Final study measurements were taken on Day 19, at which point the study was terminated due to vehicle control tumor volumes approaching IACUC limits.

The test system of the next data set is NCI-H460 cells. Kind of data set: NCI-H460 tumor cell cytotoxicity assay (CellTiter-Glo). It counts as cell-based. The note with it: Homo sapiens, NCI-H460, 48 h. The procedure:
NCI-H460 cells (non-small cell lung cancer) were plated at 500 cells per well and incubated for 20-24 hrs at 37° C. at 5% CO2. Post cell incubation, compounds were reconstituted in DMSO to a stock concentration of 200 uM. A compound plate was then prepared containing a 10 point dilution in RPMI+10% FBS+0.25% DMSO. 5 uL of the dilution was then added for a final working concentration range of 10 uM to 0.0005 uM. Compounds and cells were then incubated for 48 hrs. Cells were then analyzed by CellTiter-Glo for ATP levels and percent inhibition calculated.

The format of data set [4] is in vivo, mice. The note with it: LS174t xenograft, FIG. 4. The procedure: Accumulation and retention of Conjugate 38 was tested in this tumor xenograft model.
Data set [5] relates to LS174t colon tumor xenograft. Kind of data set: LS174t colon tumor xenograft model, efficacy. It counts as in vivo, mice. The note with it: FIG. 3A, in words.
In a further data set the test system is pAKT (S473). Kind of data set: LS174t tumor xenograft, pharmacodynamic response. It counts as in vivo, mice. The note with it: through the course of 48 h, FIG. 5, in words.
Data set [6] deals with BT474 (breast cancer) tumor xenograft. As to the kind of experiment: BT474 breast cancer xenograft. It counts as in vivo, mice. The note with it: Conjugate 38 IV 25 mg/kg vs Copanlisib 6 mg/kg, FIG. 3C. The procedure: (§3) PIK3A mutations occur in about 15% to 30% of breast, endometrial and colon cancers. In additional to LS174t model, other xenograft models harboring common PIK3CA mutations were chosen for testing. In one study, mice bearing SKOV3 (ovarian cancer) tumor xenograft were treated with IV dose of Conjugate 38 at 25 mg/kg and Copanlisib at 6 mg/kg. Doses were selected based on the maximum tolerated dose. In another study, mice bearing BT474 (breast cancer) tumor xenograft were treated with IV dose of Conjugate 38 at 25 mg/kg and Copanlisib at 6 mg/kg.

Data set [7] has as its system SKOV3 (ovarian cancer) tumor xenograft. Kind of data set: SKOV3 ovarian cancer xenograft. It counts as in vivo, mice. The note with it: Conjugate 38 IV 25 mg/kg vs Copanlisib 6 mg/kg, FIG. 3B. The procedure: as §3
For the next data set, the system named is PI3K. As to the kind of experiment: Cell free PI3K enzyme assay. The note with it: FIG. 6, in words. It counts as biochemical. The source says:
Therefore, conjugating a PI3K enzyme inhibitor payload to a HSP90 targeting ligand masked the PI3K enzyme inhibition.

The nature of data set [8]: Caco-2 cell monolayer permeability assay. It counts as in vitro ADME, human. The note with it: human. The source says:
(§4) In order to test the ability of the payloads and/or conjugates to enter cells, a cell monolayer assay was utilized employing Caco-2 cells (a human epithelial colorectal adenocarcinoma cell line).
(§5) Experimental Procedure: Caco-2 cells grown in tissue culture flasks are trypsinized, suspended in medium, and the suspensions were applied to wells of a Millipore 96 well Caco-2 plate. The cells are allowed to grow and differentiate for three weeks, feeding at 2-day intervals. For Apical to Basolateral (A→B) permeability, the test agent is added to the apical (A) side and amount of permeation is determined on the basolateral (B) side; for Basolateral to Apical (B→A) permeability, the test agent is added to the B side and the amount of permeation is determine on the A side.

A further data set concerns Caco-2 cells. Kind of data set: Caco-2 cell monolayer permeability assay. It counts as in vitro ADME, human. The note with it: Caco-2.
Text: as §4, §5
A general note: Passage across Caco-2 layers is used to estimate intestinal permeability.

Where two headings read alike, the source gives them in different places. Some results are limits rather than exact numbers.

On to `CCNC(=O)c1nnc(-c2cc(C(C)C)c(O)cc2O)n1-c1ccc(CN2CCC(C(=O)N3CCC(C(=O)OC[C@@H](NC(=O)c4cc(-c5cc(NC(C)C)ncc5Cl)c[nH]4)c4cccc(Cl)c4)CC3)CC2)c(F)c1` [Conjugate 46], for which the “ERK1/2 inhibiting activity compared with payload (ulixertinib)” value in the data set with ERK1/2 is “lower than its payload”.
Turning to `CCNC(=O)c1nnc(-c2cc(C(C)C)c(O)cc2O)n1-c1ccc(N(C)C2CCN(C(=O)CCC(=O)OC[C@H](O)Cn3cnc4c(c(Nc5ccc(I)cc5F)c(F)c(=O)n4C)c3=O)CC2)cc1` [Conjugate 47], in the data set with MEK, the “MEK activity compared with payload TAK-733” value was “lower than its payload”.
Turning to `CCNC(=O)c1nnc(-c2cc(C(C)C)c(O)cc2O)n1-c1ccc(CN2CCN(C(=O)Cc3ccc(OC(=O)N4CCN(CCCOc5ccc6c(c5OC)N=C(NC(=O)c5cnc(N)nc5)N5CCN=C65)CC4)cc3)CC2)cc1` [Compound 38], the IC50 in the data set on human total EbB2/Her2 worked out at 39 nM; in the data set on NCI-H460 cells (n = 1, read-out: H460 in vitro cytotoxicity), 8.2 nM; with NCI-H460 cells (n = 2, read-out: H460 in vitro cytotoxicity), 7.4 nM. The “efficacy (tumor volumes) in H460 xenograft” value in data set [1] is “superior to Copanlisib alone or ganetespib alone”. Further, the “accumulation and retention in xenograft tumor tissue” value in the data set “H460 mouse tumor PK” (H460 tumor-bearing mice, in words) was “accumulated and was retained in xenograph tumor tissue”. Besides, the concentration at 96 h was 6.2 µM in the data set “H460 mouse tumor PK” (Animal ID 1), 7.6 µM in the data set “H460 mouse tumor PK” (Animal ID 2), 6.25 µM in the data set “H460 mouse tumor PK” (Animal ID 3) and 6.68 µM in the data set “H460 mouse tumor PK” (Mean). Besides, the concentration at 144 h in “H460 mouse tumor PK” (Animal ID 1) turned out to be 0.84 µM; in “H460 mouse tumor PK” (Animal ID 2), 3.61 µM; in the data set “H460 mouse tumor PK” (Animal ID 3), 1.57 µM; in “H460 mouse tumor PK” (Mean), 2.01 µM. For the same compound, the “glucose concentration after dosing” value in data set [2] is “lower glucose concentrations than mice treated with the PI3K inhibitor payload”. Further, the tumor growth inhibition in data set [3] is recorded as 70.8%. Besides, the “time remaining in the tumor xenograft and releasing active PI3K inhibitor payload” value in [4] is above 96 h. Moreover, the “efficacy (tumor growth inhibition) in LS174t xenograft” value in [5] is “significant tumor growth inhibition”. For the same compound, the “efficacy compared with combination therapy of copanlisib and ganetespib” value in [5] (LS174t xenograft) was “worked much better than a combination therapy comprising copanlisib and ganetespib”. Besides, the “inhibition of PI3K shown by pAKT (S473)” value in the data set with pAKT (S473) is recorded as “significant reduction of pAKT (S473)”. The “tumor growth inhibition compared to Copanlisib” value in [6] and in [7] was “statistically significant increase in tumor growth inhibition” throughout. For the same compound, the “PI3K enzyme inhibition compared with payload” value in the data set with PI3K was “much less active than its PI3K enzyme inhibitor payload”.
For `COc1c(OCCCN2CCNCC2)ccc2c1N=C(NC(=O)c1cnc(N)nc1)N1CCN=C21` [Compound 27A], the Papp A→B in data set [8] (Caco-2, A to B direction) came to 0.032 nm/s. Further, the Papp B→A in data set [8] (Caco-2, B to A direction) came to 0.162 nm/s. In the data set on Caco-2 cells, the permeability in words entry is listed as “very low permeability”.

Usually Papp A→B stands for how fast a substance crosses the layer from the apical side. High values mean fast passage, low ones slow passage. A word on the Papp B→A: it is how fast a substance crosses the layer from the basolateral side.

Source of the values: US20210000966A1, “HSP90-TARGETING CONJUGATES AND FORMULATIONS THEREOF” (TARVEDA THERAPEUTICS, INC., priority 2017, published 2021).
